Where “and” joins values, the source holds several entries; their conditions need not be identical. Identical values can stand only once.
Test system: 186277-243-T-J2-PDC complex spheroids, viability
Assay: Anticancer human tumor 186277-243-T-J2-PDC patient-derived colon adenocarcinoma cell line growth inhibition [RAS]
Details: for viability, T/C: stronger effect = lower value; active = viability on the fitted dose curve at most 10% of control; inactive = the rest
Method in brief: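 Agents were tested in combination matrices in half-log decrements from a top concentration at or near clinical Cmax (10 microM if undetermined). Targets were multi-cell spheroids of tumour lines plus HUVEC and MSC stromal cells.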

[1] = curve of first compound, second compound 0.000949 µM
[2] = curve of first compound, second compound 0.003 µM
[3] = curve of first compound, second compound 0.00949 µM
[4] = curve of first compound, second compound 0.03 µM
[5] = curve of first compound, second compound 0.0949 µM
[6] = curve of first compound, second compound 0.3 µM
[7] = second compound 0.000949 µM, first compound 0.0316 µM
[8] = second compound 0.000949 µM, first compound 0.1 µM
[9] = second compound 0.000949 µM, first compound 0.316 µM
[10] = second compound 0.000949 µM, first compound 1 µM
[11] = second compound 0.000949 µM, first compound 3.16 µM
[12] = second compound 0.000949 µM, first compound 10 µM
[13] = second compound 0.003 µM, first compound 0.0316 µM
[14] = second compound 0.003 µM, first compound 0.1 µM
[15] = second compound 0.003 µM, first compound 0.316 µM
[16] = second compound 0.003 µM, first compound 1 µM
[17] = second compound 0.003 µM, first compound 3.16 µM
[18] = second compound 0.003 µM, first compound 10 µM
[19] = second compound 0.00949 µM, first compound 0.0316 µM
[20] = second compound 0.00949 µM, first compound 0.1 µM
[21] = second compound 0.00949 µM, first compound 0.316 µM
[22] = second compound 0.00949 µM, first compound 1 µM
[23] = second compound 0.00949 µM, first compound 3.16 µM
[24] = second compound 0.00949 µM, first compound 10 µM
[25] = second compound 0.03 µM, first compound 0.0316 µM
[26] = second compound 0.03 µM, first compound 0.1 µM
[27] = second compound 0.03 µM, first compound 0.316 µM
[28] = second compound 0.03 µM, first compound 1 µM
[29] = second compound 0.03 µM, first compound 3.16 µM
[30] = second compound 0.03 µM, first compound 10 µM
[31] = second compound 0.0949 µM, first compound 0.0316 µM
[32] = second compound 0.0949 µM, first compound 0.1 µM
[33] = second compound 0.0949 µM, first compound 0.316 µM
[34] = second compound 0.0949 µM, first compound 1 µM
[35] = second compound 0.0949 µM, first compound 3.16 µM
[36] = second compound 0.0949 µM, first compound 10 µM
[37] = second compound 0.3 µM, first compound 0.0316 µM
[38] = second compound 0.3 µM, first compound 0.1 µM
[39] = second compound 0.3 µM, first compound 0.316 µM
[40] = second compound 0.3 µM, first compound 1 µM
[41] = second compound 0.3 µM, first compound 3.16 µM
[42] = second compound 0.3 µM, first compound 10 µM
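Note: spheroids exposed to compounds for 7 days before viability read.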

CCn1c(-c2cccnc2C(C)OC)c2c3cc(ccc31)N1CCOC(CC(NC(=O)C(C(C)C)N(C)C(=O)C3(F)CCN(C(=O)C#CC(C)(C)N(C)C)CC3)C(=O)N3CCCC(N3)C(=O)OCC(C)(C)C2)C1 (centres undefined)
inactive: viability, T/C (compound 0.000949 µM) 96.7% [middle of 8 runs] | viability, T/C (compound 0.003 µM) 96.3% [middle of 8 runs] | viability, T/C (compound 0.03 µM) 102% [middle of 8 runs] | viability, T/C (compound 0.3 µM) 103% [middle of 8 runs]
> 300 nM: IC50 (compound alone, run of 05/20/2024)

CC(C)NCC(C(=O)N1CCN(c2ncnc3c2C(C)CC3O)CC1)c1ccc(Cl)cc1 (centres undefined) + CCn1c(-c2cc(N3CCN(C)CC3)cnc2C(C)OC)c2c3cc(ccc31)-c1csc(n1)CC(NC(=O)C1CC1C)C(=O)N1CCCC(N1)C(=O)OCC(C)(C)C2
467 nM: IC50 [2]
69.2 nM: IC50 [3]
inactive: viability, T/C [7] 111% | viability, T/C [8] 101% | viability, T/C [9] 74.8% | viability, T/C [10] 42.8% | viability, T/C [11] 34.8% | viability, T/C [12] 20.4% | viability, T/C [13] 98.6% | viability, T/C [14] 81.6% | viability, T/C [15] 58.8% | viability, T/C [16] 33.8% | viability, T/C [17] 16.1% | viability, T/C [19] 51.6% | viability, T/C [20] 51% | viability, T/C [21] 28% | viability, T/C [25] 13.1% | viability, T/C [26] 15.3%
841 nM: IC50 [1]
< 31.6 nM: IC50 [4] | IC50 [5] | IC50 [6]
active: viability, T/C [18] 7.85% | viability, T/C [22] 11.4% | viability, T/C [23] 4.9% | viability, T/C [24] 1.96% | viability, T/C [27] 7.36% | viability, T/C [28] 3.74% | viability, T/C [29] 1.65% | viability, T/C [30] 0.66% | viability, T/C [31] 6.83% | viability, T/C [32] 6.82% | viability, T/C [33] 4.35% | viability, T/C [34] 2.2% | viability, T/C [35] 1.09% | viability, T/C [36] 0.38% | viability, T/C [37] 6.18% | viability, T/C [38] 5.27% | viability, T/C [39] 3.57% | viability, T/C [40] 1.82% | viability, T/C [41] 0.88% | viability, T/C [42] 0.37%

CC(C)n1nc(-c2ccc3oc(N)nc3c2)c2c(N)ncnc21 + C=CC(=O)N1CCN(c2nc(OCC3CCCN3C)nc3c(F)c(-c4nc(N)cc(C)c4C(F)(F)F)c(Cl)cc23)C(C)C1
inactive: viability, T/C (second compound 0.00316 µM, first compound 0.000316 µM) 109% | viability, T/C (second compound 0.00316 µM, first compound 0.001 µM) 92.1% | viability, T/C (second compound 0.00316 µM, first compound 0.00316 µM) 91.1% | viability, T/C (second compound 0.00316 µM, first compound 0.01 µM) 80.4% | viability, T/C (second compound 0.00316 µM, first compound 0.0316 µM) 90.1% | viability, T/C (second compound 0.00316 µM, first compound 0.1 µM) 43.5% | viability, T/C (second compound 0.01 µM, first compound 0.000316 µM) 97.6% | viability, T/C (second compound 0.01 µM, first compound 0.001 µM) 96.7% | viability, T/C (second compound 0.01 µM, first compound 0.00316 µM) 82.5% | viability, T/C (second compound 0.01 µM, first compound 0.01 µM) 106% | viability, T/C (second compound 0.01 µM, first compound 0.0316 µM) 77.7% | viability, T/C (second compound 0.01 µM, first compound 0.1 µM) 51.4% | viability, T/C (second compound 0.0316 µM, first compound 0.000316 µM) 95.1% | viability, T/C (second compound 0.0316 µM, first compound 0.001 µM) 104% | viability, T/C (second compound 0.0316 µM, first compound 0.00316 µM) 80.3% | viability, T/C (second compound 0.0316 µM, first compound 0.01 µM) 123% | viability, T/C (second compound 0.0316 µM, first compound 0.0316 µM) 89.8% | viability, T/C (second compound 0.0316 µM, first compound 0.1 µM) 56.8% | viability, T/C (second compound 0.1 µM, first compound 0.000316 µM) 94.5% | viability, T/C (second compound 0.1 µM, first compound 0.001 µM) 106% | viability, T/C (second compound 0.1 µM, first compound 0.00316 µM) 108% | viability, T/C (second compound 0.1 µM, first compound 0.01 µM) 91% | viability, T/C (second compound 0.1 µM, first compound 0.0316 µM) 90.8% | viability, T/C (second compound 0.1 µM, first compound 0.1 µM) 48.5% | viability, T/C (second compound 0.316 µM, first compound 0.000316 µM) 92.5% | viability, T/C (second compound 0.316 µM, first compound 0.001 µM) 106% | viability, T/C (second compound 0.316 µM, first compound 0.00316 µM) 94% | viability, T/C (second compound 0.316 µM, first compound 0.01 µM) 93.9% | viability, T/C (second compound 0.316 µM, first compound 0.0316 µM) 97.4% | viability, T/C (second compound 0.316 µM, first compound 0.1 µM) 48% | viability, T/C (second compound 1 µM, first compound 0.000316 µM) 109% | viability, T/C (second compound 1 µM, first compound 0.001 µM) 101% | viability, T/C (second compound 1 µM, first compound 0.00316 µM) 84.6% | viability, T/C (second compound 1 µM, first compound 0.01 µM) 113% | viability, T/C (second compound 1 µM, first compound 0.0316 µM) 82.5% | viability, T/C (second compound 1 µM, first compound 0.1 µM) 42.5%
95.1 nM: IC50 (curve of first compound, second compound 0.316 µM)
85.1 nM: IC50 (curve of first compound, second compound 0.00316 µM)
> 100 nM: IC50 (curve of first compound, second compound 0.01 µM) | IC50 (curve of first compound, second compound 0.0316 µM)
80.3 nM: IC50 (curve of first compound, second compound 1 µM)
97.6 nM: IC50 (curve of first compound, second compound 0.1 µM)

CCN1CCN(Cc2ccc(Nc3ncc(F)c(-c4cc(F)c5nc(C)n(C(C)C)c5c4)n3)nc2)CC1
> 1000 nM: IC50 (curve of compound)
inactive: viability, T/C (compound 0.01 µM) 102% (3×) and 98.7% | viability, T/C (compound 0.1 µM) 127% [middle of 4 runs]

NC1c2ccccc2OC12CCN(c1cnc3c(N4CCCc5ncccc54)n[nH]c3n1)CC2 (centres undefined) + CCn1c(-c2cccnc2C(C)OC)c2c3cc(ccc31)N1CCOC(CC(NC(=O)C(C(C)C)N(C)C(=O)C3(F)CCN(C(=O)C#CC(C)(C)N(C)C)CC3)C(=O)N3CCCC(N3)C(=O)OCC(C)(C)C2)C1
4090 nM: IC50 [6]
inactive: viability, T/C [7] 84.6% | viability, T/C [8] 102% | viability, T/C [9] 114% | viability, T/C [10] 122% | viability, T/C [11] 109% | viability, T/C [12] 70.3% | viability, T/C [13] 108% | viability, T/C [14] 96.5% | viability, T/C [15] 119% | viability, T/C [16] 119% | viability, T/C [17] 104% | viability, T/C [18] 74.6% | viability, T/C [19] 100% | viability, T/C [20] 110% | viability, T/C [21] 121% | viability, T/C [22] 119% | viability, T/C [23] 104% | viability, T/C [24] 66.9% | viability, T/C [25] 111% | viability, T/C [26] 89% | viability, T/C [27] 117% | viability, T/C [28] 114% | viability, T/C [29] 105% | viability, T/C [30] 76% | viability, T/C [31] 102% | viability, T/C [32] 94.1% | viability, T/C [33] 112% | viability, T/C [34] 91.2% | viability, T/C [35] 83.4% | viability, T/C [36] 60.8% | viability, T/C [37] 94.5% | viability, T/C [38] 88.5% | viability, T/C [39] 75.5% | viability, T/C [40] 65.9% | viability, T/C [41] 54.6% | viability, T/C [42] 38.3%
> 10000 nM: IC50 [1] | IC50 [2] | IC50 [3] | IC50 [4] | IC50 [5]
